What was measured:
CREBBP = CREBBP (Homo sapiens, UniProt Q92793); assay: Histone acetyltransferase inhibitory activity against CREBBP (Test Example 1); format: biochemical; settings: 125 ng/mL CREBBP, 2 μM Acetyl-CoA, 100 nM Histone H4(1-25)-GSGSK (Biotin), 28° C. for 1 hour
Protocol: (§1) [Test Example 1] Evaluation of Histone
(§2) Acetyltransferase Inhibitory Activity against EP300 and CREBBP
(§3) 10 μL each of reaction solutions each containing a different concentration of the compound of each of Examples 1 to 108b (50 mM Tris-HCl (pH8.0), 0.1 mM EDTA, 1 mM dithiothreitol, 0.01% Tween-20, 0.01% Bovine serum albumin, 330 nM trichostatin A, 2 μM Acetyl-CoA (Sigma-Aldrich, #A2056), 100 nM Histone H4(1-25)-GSGSK (Biotin) (Anaspec, #65242-1), 1% dimethyl sulfoxide, 10 to 0.0006 μM of each compound, 50 ng/mL EP300 or 125 ng/mL CREBBP) was added to respective wells of a 384-well plate, and cultured at 28° C. for 1 hour. Thereafter, 5 μL of 30 μM Lys-CoA (Daiichi Sankyo Co., Ltd.) dissolved in LANCE detection buffer (Perkin Elmer Co., Ltd., #CR97-100) was added to each well. Furthermore, 5 μL of LANCE detection buffer containing 2 nM Eu-anti pan-Ac (Perkin Elmer Co., Ltd., #TRF0412) and 50 nM Sta-Ulight (Perkin Elmer Co., Ltd., #TRF0102) was added to each well, and the resultant was cultured at room temperature overnight. EnVision (Perkin Elmer Co., Ltd., Model 2104-0020) was used to measure ULight signals. […] EP300 and CREBBP were produced and purified by Daiichi Sankyo RD Novare Co., Ltd.

LK2 cells = assay: Cell growth inhibitory activity, LK2 cells (Test Example 3); format: cell-based; settings: Homo sapiens, LK-2, 72 h, cultured for 3 days, CellTiter-Glo
Protocol: (§4) [Test Example 3] Evaluation of Cell Growth Inhibitory Activity
(§5) As a culture medium for each cell, a 10% FBS supplemented RPMI 1640 medium (for LK2 cells and TE-8 cells derived from human esophageal cancer) was used. LK2 cells were purchased from Human Science Research Resources Bank, and TE-8 cells were purchased from Riken Cell Bank. The compound of each of Examples 1 to 108b was prepared by dilution with Freedom EVO 150 (Tecan Trading AG) (4-fold diluted, 10 stages, 10 mM to 38 nM). The resultant was added to respective wells of a 384-well plate in an amount of 40 nL/well using Echo 555 (Labcyte Inc.). The LK2 or TE-8 cells were seeded in the plate at 400 cells/40 μL/well (day 0), and were cultured for 3 days. On the day of addition of the compound (day 0) and 3 days after the addition of the compound (day 3), an ATP measurement reagent of CellTiter-Glo (registered trademark) 2.0 Assay (Promega Corporation, #G9242) was added to each well in an amount of 10 μL/well, and the amount of luminescence of each well was measured using EnVision. Based on the amount of luminescence (C0) on the day of the addition of the compound, and the amounts of luminescence of a compound non-addition group (C3) and a compound addition group (T3) obtained after the 3-day culture of the compound, a cell survival rate was calculated in accordance with the following expression: Cell survival rate (%)=(T3−C0)/(C3−C0)×100
(§6) A concentration (GI50 value) of each compound at which the growth of the TE-8 or LK-2 cells was inhibited by 50% was calculated by semilogarithmically plotting the cell survival rate at each concentration and the compound concentration.

H3K27Ac = assay: Intracellular H3K27Ac inhibitory activity in LK2 cells (Test Example 2); format: cell-based; settings: Homo sapiens, LK-2, cultured with compound for 3 hours, read-out: Test Example 2 H3K27Ac Inhibition (LK2) IC50
Protocol: [Test Example 2] Evaluation of Intracellular H3K27Ac Inhibitory Activity
LK2 cells derived from human squamous cell lung cancer were seeded in a 96 well plate at 40000 cells/100 μL/well, and were cultured overnight at 37° C. in 5% CO2. The LK2 cells were purchased from Human Science Research Resources Bank. […] The supernatant was discarded, 4% paraformaldehyde was added thereto at 100 μL/well, and the resultant was allowed to stand still at room temperature for 15 minutes. The 4% paraformaldehyde was discarded, and the resultant was washed with PBS-T. A quenching buffer (PBS-T containing 1% H2O2) was added thereto at of 100 μL/well, and the resultant was allowed to stand still at room temperature for 10 minutes. The resultant was washed with PBS-T, a blocking buffer (StartingBlocK T20 (TBS) Blocking Buffer (Thermo […], #37543)) was added thereto at 200 μL/well, and the resultant was allowed to stand still at room temperature for 1 hour. The supernatant was discarded, Acetyl-Histone H3 (Lys27) (D5E4) XP (registered trademark) Rabbit mAb (cell Signaling, #8173) diluted with a blocking buffer was added thereto at 50 μL/well, and the resultant was allowed to stand still at 4° C. overnight. The resultant was washed with PBS-T, Anti-Rabbit IgG-HRP (Cell Signaling, #7074S) diluted with a blocking buffer was added thereto at 50 μL/well, and the resultant was cultured at room temperature for 1 hour. The resultant was washed with PBS-T, SuperSignal (registered trademark) ELISA Pico Chemiluminescent Substrate (Thermo […], #37069) was added thereto at 50 μL/well, and a signal was measured using EnVision.

TE-8 cells = assay: Cell growth inhibitory activity, TE-8 cells (Test Example 3); format: cell-based; settings: Homo sapiens, 72 h, cultured for 3 days, CellTiter-Glo
Protocol: as §4, §5, §6

EP300 = EP300 (Homo sapiens, UniProt Q09472); assay: Histone acetyltransferase inhibitory activity against EP300 (Test Example 1); format: biochemical; settings: 50 ng/mL EP300, 2 μM Acetyl-CoA, 100 nM Histone H4(1-25)-GSGSK (Biotin), 28° C. for 1 hour
Protocol: as §1, §2, §3

Chain of CREBBP (Q92793 whole entry): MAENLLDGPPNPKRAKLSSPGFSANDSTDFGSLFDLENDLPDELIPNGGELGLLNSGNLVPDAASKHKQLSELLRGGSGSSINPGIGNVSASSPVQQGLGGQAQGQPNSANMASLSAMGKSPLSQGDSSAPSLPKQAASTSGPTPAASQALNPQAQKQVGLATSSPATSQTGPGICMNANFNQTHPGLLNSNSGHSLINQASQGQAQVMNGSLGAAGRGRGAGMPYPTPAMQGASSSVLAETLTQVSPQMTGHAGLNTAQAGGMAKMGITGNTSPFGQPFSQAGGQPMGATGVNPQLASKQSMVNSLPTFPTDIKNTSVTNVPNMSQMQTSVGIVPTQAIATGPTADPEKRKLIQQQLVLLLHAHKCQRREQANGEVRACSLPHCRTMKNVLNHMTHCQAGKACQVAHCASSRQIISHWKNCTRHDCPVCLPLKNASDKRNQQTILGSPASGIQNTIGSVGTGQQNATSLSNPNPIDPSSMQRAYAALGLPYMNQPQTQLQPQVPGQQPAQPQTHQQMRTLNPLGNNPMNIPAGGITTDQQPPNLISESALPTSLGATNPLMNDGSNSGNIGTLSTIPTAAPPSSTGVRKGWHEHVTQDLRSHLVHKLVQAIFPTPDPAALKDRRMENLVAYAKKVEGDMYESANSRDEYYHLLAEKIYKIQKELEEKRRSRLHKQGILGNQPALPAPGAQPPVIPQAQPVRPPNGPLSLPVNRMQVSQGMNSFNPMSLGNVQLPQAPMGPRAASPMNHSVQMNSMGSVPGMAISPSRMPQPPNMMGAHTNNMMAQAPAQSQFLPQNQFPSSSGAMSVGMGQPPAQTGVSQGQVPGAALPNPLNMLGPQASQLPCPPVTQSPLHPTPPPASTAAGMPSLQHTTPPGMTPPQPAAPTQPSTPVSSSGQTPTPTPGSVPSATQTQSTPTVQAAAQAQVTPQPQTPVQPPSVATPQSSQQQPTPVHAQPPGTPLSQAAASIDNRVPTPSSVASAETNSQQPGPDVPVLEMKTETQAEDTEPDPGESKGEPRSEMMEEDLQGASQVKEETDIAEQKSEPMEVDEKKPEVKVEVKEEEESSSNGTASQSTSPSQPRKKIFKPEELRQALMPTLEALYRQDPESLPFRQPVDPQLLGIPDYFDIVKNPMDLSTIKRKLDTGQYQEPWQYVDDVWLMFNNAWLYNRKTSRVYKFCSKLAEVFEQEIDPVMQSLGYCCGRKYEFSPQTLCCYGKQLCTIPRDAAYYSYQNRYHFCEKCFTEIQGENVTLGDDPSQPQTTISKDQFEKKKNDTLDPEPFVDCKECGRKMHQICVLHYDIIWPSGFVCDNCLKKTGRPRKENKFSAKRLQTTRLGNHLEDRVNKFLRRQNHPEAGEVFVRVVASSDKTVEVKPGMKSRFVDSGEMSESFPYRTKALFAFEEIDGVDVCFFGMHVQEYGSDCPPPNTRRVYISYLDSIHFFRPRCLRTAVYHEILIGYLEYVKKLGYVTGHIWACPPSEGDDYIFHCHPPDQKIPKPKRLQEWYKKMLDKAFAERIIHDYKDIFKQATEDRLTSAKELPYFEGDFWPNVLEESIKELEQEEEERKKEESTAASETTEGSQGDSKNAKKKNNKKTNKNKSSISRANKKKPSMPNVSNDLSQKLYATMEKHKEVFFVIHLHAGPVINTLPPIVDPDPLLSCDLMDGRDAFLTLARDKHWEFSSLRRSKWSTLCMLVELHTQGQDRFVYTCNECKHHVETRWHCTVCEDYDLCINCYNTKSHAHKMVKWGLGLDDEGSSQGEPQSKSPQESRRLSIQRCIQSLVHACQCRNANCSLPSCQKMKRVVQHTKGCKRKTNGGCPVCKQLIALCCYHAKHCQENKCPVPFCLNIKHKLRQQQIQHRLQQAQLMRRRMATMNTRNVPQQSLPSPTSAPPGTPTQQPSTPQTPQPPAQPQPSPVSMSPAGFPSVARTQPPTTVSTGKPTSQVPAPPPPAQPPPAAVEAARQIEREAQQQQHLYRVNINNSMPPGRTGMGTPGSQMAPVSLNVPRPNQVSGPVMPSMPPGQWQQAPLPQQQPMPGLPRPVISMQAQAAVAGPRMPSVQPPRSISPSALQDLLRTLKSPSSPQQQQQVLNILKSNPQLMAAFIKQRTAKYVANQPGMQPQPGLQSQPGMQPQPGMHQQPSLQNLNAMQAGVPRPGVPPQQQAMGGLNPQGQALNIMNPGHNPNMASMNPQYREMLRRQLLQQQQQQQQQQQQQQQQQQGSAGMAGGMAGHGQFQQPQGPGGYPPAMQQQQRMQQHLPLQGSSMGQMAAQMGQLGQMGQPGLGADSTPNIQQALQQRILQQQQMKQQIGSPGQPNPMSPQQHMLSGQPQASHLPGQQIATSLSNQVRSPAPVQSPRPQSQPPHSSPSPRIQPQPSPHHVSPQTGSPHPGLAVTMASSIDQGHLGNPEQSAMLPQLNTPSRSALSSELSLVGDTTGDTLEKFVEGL
Chain of EP300 (Q09472 whole entry): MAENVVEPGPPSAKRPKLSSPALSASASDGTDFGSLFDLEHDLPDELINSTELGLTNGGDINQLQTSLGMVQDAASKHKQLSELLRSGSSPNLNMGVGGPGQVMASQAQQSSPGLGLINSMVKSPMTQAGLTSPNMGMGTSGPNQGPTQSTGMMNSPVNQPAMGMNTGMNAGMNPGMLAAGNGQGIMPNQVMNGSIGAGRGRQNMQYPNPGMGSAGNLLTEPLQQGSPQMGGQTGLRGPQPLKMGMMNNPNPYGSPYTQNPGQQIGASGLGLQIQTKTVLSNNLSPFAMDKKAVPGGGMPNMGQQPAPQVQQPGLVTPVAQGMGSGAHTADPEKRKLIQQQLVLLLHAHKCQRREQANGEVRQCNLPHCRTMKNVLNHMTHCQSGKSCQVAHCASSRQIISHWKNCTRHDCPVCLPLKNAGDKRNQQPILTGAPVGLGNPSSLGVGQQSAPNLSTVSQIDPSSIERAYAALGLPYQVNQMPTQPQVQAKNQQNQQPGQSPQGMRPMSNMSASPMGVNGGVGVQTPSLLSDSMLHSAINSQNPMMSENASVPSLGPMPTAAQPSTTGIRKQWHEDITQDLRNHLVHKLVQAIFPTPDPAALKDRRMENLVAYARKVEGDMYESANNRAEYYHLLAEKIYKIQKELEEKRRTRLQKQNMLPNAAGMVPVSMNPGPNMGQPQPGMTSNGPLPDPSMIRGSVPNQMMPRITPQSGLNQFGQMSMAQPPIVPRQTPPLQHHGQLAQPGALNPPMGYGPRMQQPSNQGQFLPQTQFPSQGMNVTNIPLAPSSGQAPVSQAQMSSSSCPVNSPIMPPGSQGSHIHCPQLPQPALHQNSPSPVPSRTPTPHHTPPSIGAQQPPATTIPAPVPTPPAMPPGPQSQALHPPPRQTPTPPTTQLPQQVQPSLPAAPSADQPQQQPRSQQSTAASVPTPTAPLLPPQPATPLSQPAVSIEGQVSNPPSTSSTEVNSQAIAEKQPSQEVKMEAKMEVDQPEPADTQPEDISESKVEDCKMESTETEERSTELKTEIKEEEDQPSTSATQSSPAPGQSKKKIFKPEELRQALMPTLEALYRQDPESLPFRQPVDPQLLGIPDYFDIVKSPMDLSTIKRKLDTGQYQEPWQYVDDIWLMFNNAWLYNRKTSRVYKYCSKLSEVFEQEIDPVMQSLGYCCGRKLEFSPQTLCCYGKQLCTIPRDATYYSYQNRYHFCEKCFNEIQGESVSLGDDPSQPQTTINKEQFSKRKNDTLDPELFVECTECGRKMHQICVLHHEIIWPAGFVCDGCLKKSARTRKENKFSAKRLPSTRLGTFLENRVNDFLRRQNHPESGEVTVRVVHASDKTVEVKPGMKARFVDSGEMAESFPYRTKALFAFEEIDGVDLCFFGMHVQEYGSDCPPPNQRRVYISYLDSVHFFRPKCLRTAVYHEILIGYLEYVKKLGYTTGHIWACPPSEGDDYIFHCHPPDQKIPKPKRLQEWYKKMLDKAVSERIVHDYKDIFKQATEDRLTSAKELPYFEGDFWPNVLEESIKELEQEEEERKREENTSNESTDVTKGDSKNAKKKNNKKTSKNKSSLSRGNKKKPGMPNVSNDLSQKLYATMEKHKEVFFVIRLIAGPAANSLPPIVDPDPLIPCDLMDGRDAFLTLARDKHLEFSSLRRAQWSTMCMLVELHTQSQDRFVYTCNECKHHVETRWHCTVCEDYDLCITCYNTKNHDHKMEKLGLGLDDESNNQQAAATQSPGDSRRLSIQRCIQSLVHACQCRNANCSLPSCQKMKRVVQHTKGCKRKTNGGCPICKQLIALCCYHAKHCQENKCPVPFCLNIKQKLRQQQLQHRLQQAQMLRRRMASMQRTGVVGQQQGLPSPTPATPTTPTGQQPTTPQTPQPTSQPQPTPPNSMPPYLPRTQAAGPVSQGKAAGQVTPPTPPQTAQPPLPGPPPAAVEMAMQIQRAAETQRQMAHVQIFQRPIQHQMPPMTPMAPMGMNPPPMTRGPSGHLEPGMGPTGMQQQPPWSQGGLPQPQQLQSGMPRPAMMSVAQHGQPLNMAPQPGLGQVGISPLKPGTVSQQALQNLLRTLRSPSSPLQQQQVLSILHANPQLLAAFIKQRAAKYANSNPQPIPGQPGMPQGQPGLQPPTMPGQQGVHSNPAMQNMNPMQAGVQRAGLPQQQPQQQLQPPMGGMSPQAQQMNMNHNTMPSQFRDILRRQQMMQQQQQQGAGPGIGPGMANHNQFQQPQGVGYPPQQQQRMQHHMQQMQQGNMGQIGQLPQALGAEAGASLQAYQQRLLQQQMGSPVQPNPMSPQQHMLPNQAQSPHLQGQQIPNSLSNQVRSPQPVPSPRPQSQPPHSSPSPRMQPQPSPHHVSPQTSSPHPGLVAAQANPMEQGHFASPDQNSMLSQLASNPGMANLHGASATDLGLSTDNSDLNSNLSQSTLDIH

Row | Compound | IC50 (CREBBP) | IC50 (H3K27Ac) | IC50 (EP300) | GI50 (LK2 cells) | GI50 (TE-8 cells)
1 | COc1ccc(C2(C(=O)N3CCC[C@@H]3C(=O)Nc3cccc4[nH]ncc34)CCCCCC2)cc1 [Example 54] | 201 nM | 920 nM | 126 nM | 2970 nM | 4480 nM
2 | COc1ccc(C2(C(=O)N3CCC[C@@H]3C(=O)Nc3cccc4[nH]ncc34)CCC2)cc1 [Example 53, N-1H-Indazol-4-yl-1-{[1-(4-methoxyphenyl)cyclobutyl]carbonyl}-D-prolinamide] | – | 2080 nM | – | 2640 nM | 6060 nM
3 | COc1ccc(C2(C(=O)N3CCC[C@@H]3C(=O)Nc3ccn(C)n3)CCCC2)cc1 [Example 22, 1-{[1-(4-Methoxyphenyl)cyclopentyl]carbonyl}-N-(1-methyl-1H-pyrazol-3-yl)-D-prolinamide] | 676 nM | 2250 nM | 962 nM | – | –
4 | COc1ccc(C2(C(=O)N3C[C@](C)(O)C[C@@H]3C(=O)Nc3cccc4[nH]ncc34)CCCC2)cc1 [Example 31, (4R)-4-Hydroxy-N-1H-indazol-4-yl-1-{[1-(4-methoxyphenyl)cyclopentyl]carbonyl}-4-methyl-D-prolinamide] | 652 nM | 1550 nM | 364 nM | – | –
5 | COc1ccc(C2(C(=O)N(C)CC(=O)Nc3cccc4[nH]ncc34)CCCCC2)cc1 [Example 2, N-[2-(1H-Indazol-4-ylamino)-2-oxoethyl]-1-(4-methoxyphenyl)-N-methylcyclohexanecarboxamide] | 128 nM | 1010 nM | 193 nM | – | –
6 | COc1ccc(C2(C(=O)N3CCC[C@@H]3C(=O)Nc3cccc(N)n3)CCCC2)cc1 [Example 15, N-(6-Aminopyridin-2-yl)-1-{[1-(4-methoxyphenyl)cyclopentyl]carbonyl}-D-prolinamide] | 353 nM | 908 nM | 218 nM | – | –
7 | COc1ccc(C2(C(=O)N3C[C@H](O)C[C@@H]3C(=O)Nc3cccc4[nH]ncc34)CCCC2)cc1 [Example 5, (4R)-4-Hydroxy-N-1H-indazol-4-yl-1-{[1-(4-methoxyphenyl)cyclopentyl]carbonyl}-D-prolinamide] | 334 nM | 1030 nM | 259 nM | – | –
8 | COc1ccc(C2(C(=O)N3CCC[C@@H]3C(=O)Nc3ccc(OCCN4CCOCC4)cc3C#N)CCCC2)cc1 [Example 23, N-{2-Cyano-4-[2-(morpholin-4-yl)ethoxy]phenyl}-1-{[1-(4-methoxyphenyl)cyclopentyl]carbonyl}-D-prolinamide] | 171 nM | 121 nM | 101 nM | – | –
9 | CNc1cccc(NC(=O)[C@H]2CCCN2C(=O)C2(c3ccc(OC)cc3)CCCC2)n1 [Example 30, 1-{[1-(4-Methoxyphenyl)cyclopentyl]carbonyl}-N-[6-(methylamino)pyridin-2-yl)-D-prolinamide] | 233 nM | 577 nM | 182 nM | – | –
10 | COc1ccc(C2(C(=O)N3CCC[C@@H]3C(=O)Nc3cccc4[nH]ncc34)CCCC2)cc1 [Example 1, N-1H-Indazol-4-yl-1-{[1-(4-methoxyphenyl)cyclopentyl]carbonyl}-D-prolinamide] | 218 nM | – | 176 nM | 2740 nM | 3410 nM

More lines, in order of falling IC50 (CREBBP), values ahead:

Row | IC50 (CREBBP) | IC50 (H3K27Ac) | IC50 (EP300) | Compound | GI50 (LK2 cells) | GI50 (TE-8 cells)
11 | 125 nM | 474 nM | 20 nM | N#Cc1ccccc1NC(=O)[C@H]1C[C@@H](F)CN1C(=O)C1(c2ccc(C(=O)O)cc2)CCCC1 [Example 29, 4-[1-({(2R,4R)-2-[(2-Cyanophenyl)carbamoyl]-4-fluoropyrrolidin-1-yl}carbonyl)cyclopentyl] benzoic acid] | – | –
12 | 95 nM | 21 nM | 56 nM | O=C(Nc1ccc2[nH]ncc2n1)[C@H]1C[C@@H](F)CN1C(=O)C1(c2ccc(C(=O)C(F)(F)F)cc2)CCCCC1 [Example 61, (4R)-4-Fluoro-N-1H-pyrazolo[4,3-b]pyridin-5-yl-1-({1-[4-(trifluoroacetyl)phenyl]cyclohexyl}carbonyl)-D-prolinamide] | 149 nM | 216 nM
13 | 95 nM | 304 nM | 61 nM | COc1ccc(C2(C(=O)N3CCC[C@@H]3C(=O)Nc3cccc4[nH]ccc34)CCCC2)cc1 [Example 16, N-1H-Indol-4-yl-1-{[1-(4-methoxyphenyl)cyclopentyl]carbonyl}-D-prolinamide] | – | –
14 | 87 nM | 142 nM | 76 nM | COc1c(F)cc(C2(C(=O)N3C[C@H](F)C[C@@H]3C(=O)Nc3ccc4[nH]ncc4n3)CCC(F)(F)CC2)cc1F [Example 62] | 489 nM | 880 nM
15 | 86 nM | 86 nM | 58 nM | COc1ccc(C2(C(=O)N3CC[C@@H](O)[C@@H]3C(=O)Nc3ccc4[nH]ccc4n3)CCC(F)(F)CC2)cc1 [Example 74, (3R)-1-{[4,4-Difluoro-1-(4-methoxyphenyl)cyclohexyl]carbonyl}-3-hydroxy-N-1H-pyrrolo[3,2-b]pyridin-5-yl-D-prolinamide] | 271 nM | 599 nM
16 | 83 nM | 23 nM | 52 nM | CC(C)(O)c1ccc(C2(C(=O)N3C[C@H](F)C[C@@H]3C(=O)Nc3ccc4[nH]ncc4n3)CCCCC2)cc1 [Example 81a, (4R)-4-Fluoro-1-({1-[4-(2-hydroxypropan-2-yl)phenyl]cyclohexyl}carbonyl)-N-1H-pyrazolo[4,3-b]pyridin-5-yl-D-prolinamide] | 167 nM | 176 nM
17 | 61 nM | 19 nM | 33 nM | CC(=O)c1ccc(C2(C(=O)N3C[C@H](F)C[C@@H]3C(=O)Nc3ccc4[nH]ncc4n3)CCCCC2)cc1 [Example 83, (4R)-1-{[1-(4-Acetylphenyl)cyclohexyl]carbonyl}-4-fluoro-N-1H-pyrazolo[4,3-b]pyridin-5-yl-D-prolinamide] | 203 nM | 151 nM
18 | 51 nM | 28 nM | 21 nM | COc1ccc(C2(C(=O)N3C[C@H](F)C[C@@H]3C(=O)Nc3ccc4cc[nH]c4n3)CCCCC2)cc1 [Example 52] | 254 nM | 439 nM
19 | 23 nM | > 10000 nM | 17 nM | O=C(NS(=O)(=O)C1CC1)c1ccc(C2(C(=O)N3C[C@H](F)C[C@@H]3C(=O)Nc3cccc4[nH]ncc34)CCCCC2)cc1 [Example 36, (4R)-1-[(1-{4-[(Cyclopropylsulfonyl)carbamoyl]phenyl}cyclohexyl)carbonyl]-4-fluoro-N-1H-indazol-4-yl-D-prolinamide] | – | –
